Assay results reported in ChEMBL document CHEMBL5500371, “Arginine and tryptophan-rich dendritic antimicrobial peptides that disrupt membranes for bacterial infection in vivo” (Eur J Med Chem, 2024).
≈ marks a conversion by molar mass, not a printed value. Calls of active or inactive are those of the source. The rule behind the calls is not given here. Where a SMILES comes first, the peptide text is derived from it. Side-chain parts run from the residue outwards.

How the values were obtained:
[1] = test system: Staphylococcus aureus; assay: Antibacterial activity against Staphylococcus aureus ATCC 25923 assessed as inhibition of bacterial growth incubated for 20 hrs by broth microdilution method; assay type: functional
[2] = test system: Bacillus subtilis; assay: Antibacterial activity against Bacillus subtilis ATCC 23857 assessed as inhibition of bacterial growth incubated for 20 hrs by broth microdilution method; assay type: functional
[3] = test system: Acinetobacter baumannii; assay: Antibacterial activity against Acinetobacter baumannii ATCC 19606 assessed as inhibition of bacterial growth incubated for 20 hrs by broth microdilution method; assay type: functional
[4] = test system: Klebsiella pneumoniae; assay: Antibacterial activity against Klebsiella pneumoniae ATCC 700603 assessed as inhibition of bacterial growth incubated for 20 hrs by broth microdilution method; assay type: functional
[5] = test system: Escherichia coli; assay: Antibacterial activity against Escherichia coli ATCC 25922 assessed as inhibition of bacterial growth incubated for 20 hrs by broth microdilution method; assay type: functional
[6] = test system: Pseudomonas aeruginosa; assay: Antibacterial activity against Pseudomonas aeruginosa ATCC 27853 assessed as inhibition of bacterial growth incubated for 20 hrs by broth microdilution method; assay type: functional
[7] = test system: Escherichia coli; assay: Resistant development in Escherichia coli assessed as increase in MIC at sub-MIC measured after 20 passages; assay type: functional, organism-based
[8] = test system: Erythrocyte; assay: Hemolytic activity in mouse erythrocytes assessed as 10% hemolysis incubated for 1 hr by absorbance based analysis; assay type: toxicity, cell-based
[9] = Cytotoxicity against HEK293T cells assessed as cell death measured after 1 hr by resazurin dye based analysis; assay type: toxicity, HEK-293T; details: human, HEK293T cells
[10] = test system: Escherichia coli; assay: Antibacterial activity against Escherichia coli ATCC 25922 assessed as inhibition of bacterial growth incubated for 20 hrs in presence of NaCl by broth microdilution method (reference value: 16 microM); assay type: functional
[11] = test system: Escherichia coli; assay: Antibacterial activity against Escherichia coli ATCC 25922 assessed as inhibition of bacterial growth incubated for 20 hrs in presence of KCl by broth microdilution method (reference value: 16 microM); assay type: functional
[12] = test system: Escherichia coli; assay: Antibacterial activity against Escherichia coli ATCC 25922 assessed as inhibition of bacterial growth incubated for 20 hrs in presence of MgCl2 by broth microdilution method (reference value: 16 microM); assay type: functional
[13] = test system: Escherichia coli; assay: Antibacterial activity against Escherichia coli ATCC 25922 assessed as inhibition of bacterial growth incubated for 20 hrs in presence of FeCl3 by broth microdilution method (reference value: 16 microM); assay type: functional
[14] = test system: Escherichia coli; assay: Antibacterial activity against Escherichia coli ATCC 25922 assessed as inhibition of bacterial growth incubated for 20 hrs in presence of ZnCl2 by broth microdilution method (reference value: 16 microM); assay type: functional
[15] = test system: Staphylococcus aureus; assay: Antibacterial activity against Staphylococcus aureus ATCC 25923 assessed as inhibition of bacterial growth incubated for 20 hrs in presence of NaCl by broth microdilution method (reference value: 8 microM); assay type: functional
[16] = test system: Staphylococcus aureus; assay: Antibacterial activity against Staphylococcus aureus ATCC 25923 assessed as inhibition of bacterial growth incubated for 20 hrs in presence of KCl by broth microdilution method (reference value: 8 microM); assay type: functional
[17] = test system: Staphylococcus aureus; assay: Antibacterial activity against Staphylococcus aureus ATCC 25923 assessed as inhibition of bacterial growth incubated for 20 hrs in presence of MgCl2 by broth microdilution method (reference value: 8 microM); assay type: functional
[18] = test system: Staphylococcus aureus; assay: Antibacterial activity against Staphylococcus aureus ATCC 25923 assessed as inhibition of bacterial growth incubated for 20 hrs in presence of FeCl3 by broth microdilution method (reference value: 8 microM); assay type: functional
[19] = test system: Staphylococcus aureus; assay: Antibacterial activity against Staphylococcus aureus ATCC 25923 assessed as inhibition of bacterial growth incubated for 20 hrs in presence of ZnCl2 by broth microdilution method (reference value: 8 microM); assay type: functional
[20] = test system: Staphylococcus aureus; assay: Antibacterial activity against Staphylococcus aureus ATCC 25923 assessed as inhibition of bacterial growth by measuring fold increase in MIC incubated for 20 hrs in presence of NaCl by broth microdilution method relative to control; assay type: functional
[21] = test system: Staphylococcus aureus; assay: Antibacterial activity against Staphylococcus aureus ATCC 25923 assessed as inhibition of bacterial growth by measuring fold increase in MIC incubated for 20 hrs in presence of KCl by broth microdilution method relative to control; assay type: functional
[22] = test system: Staphylococcus aureus; assay: Antibacterial activity against Staphylococcus aureus ATCC 25923 assessed as inhibition of bacterial growth by measuring fold increase in MIC incubated for 20 hrs in presence of MgCl2 by broth microdilution method relative to control; assay type: functional
[23] = test system: Staphylococcus aureus; assay: Antibacterial activity against Staphylococcus aureus ATCC 25923 assessed as inhibition of bacterial growth by measuring fold increase in MIC incubated for 20 hrs in presence of FeCl3 by broth microdilution method relative to control; assay type: functional
[24] = test system: Staphylococcus aureus; assay: Antibacterial activity against Staphylococcus aureus ATCC 25923 assessed as inhibition of bacterial growth by measuring fold increase in MIC incubated for 20 hrs in presence of ZnCl2 by broth microdilution method relative to control; assay type: functional
[25] = test system: Escherichia coli; assay: Antibacterial activity against Escherichia coli ATCC 25922 assessed as inhibition of bacterial growth preincubated with 10% mouse serum for 1 hr and measured after 20 hrs by broth microdilution method; assay type: functional; details: time 21 hrs
[26] = test system: Escherichia coli; assay: Antibacterial activity against Escherichia coli ATCC 25922 assessed as inhibition of bacterial growth preincubated with 10% mouse serum for 6 hrs and measured after 20 hrs by broth microdilution method; assay type: functional; details: time 26 hrs
[27] = Therapeutic index, ratio of MHC10 for hemolytic activity in mouse erythrocytes preincubated with 10% mouse serum for 1 hr to MIC for Escherichia coli ATCC 25922 preincubated with 10% mouse serum for 1 hr; assay type: toxicity, cell-based; details: mouse erythrocytes, read-out: TI
[28] = Therapeutic index, ratio of MHC10 for hemolytic activity in mouse erythrocytes preincubated with 10% mouse serum for 6 hrs to MIC for Escherichia coli ATCC 25922 preincubated with 10% mouse serum for 6 hrs; assay type: toxicity, cell-based; details: mouse erythrocytes, read-out: TI
[29] = test system: Staphylococcus aureus; assay: Antibacterial activity against Staphylococcus aureus ATCC 25923 assessed as inhibition of bacterial growth preincubated with 10% mouse serum for 1 hr and measured after 20 hrs by broth microdilution method; assay type: functional; details: time 21 hrs
[30] = test system: Staphylococcus aureus; assay: Antibacterial activity against Staphylococcus aureus ATCC 25923 assessed as inhibition of bacterial growth preincubated with 10% mouse serum for 6 hrs and measured after 20 hrs by broth microdilution method; assay type: functional; details: time 21 hrs
[31] = Therapeutic index, ratio of MHC10 for hemolytic activity in mouse erythrocytes preincubated with 10% mouse serum for 1 hr to MIC for Staphylococcus aureus ATCC 25923 preincubated with 10% mouse serum for 1 hr; assay type: toxicity, cell-based; details: mouse erythrocytes, read-out: TI
[32] = Therapeutic index, ratio of MHC10 for hemolytic activity in mouse erythrocytes preincubated with 10% mouse serum for 6 hrs to MIC for Staphylococcus aureus ATCC 25923 preincubated with 10% mouse serum for 6 hrs; assay type: toxicity, cell-based; details: mouse erythrocytes, read-out: TI
[33] = Hemolytic activity in mouse erythrocytes at 256 uM preincubated for 1 to 6 hr with 10% mouse serum and measured after 1 hr by absorbance based analysis; assay type: toxicity, cell-based, Erythrocyte; details: time 1-7 hrs, read-out: Activity
[34] = Stability in mouse serum assessed as half life at 10 mM measured upto 24 hrs by RP-HPLC analysis; assay type: ADME, cell-free

CO[C@H]1/C=C/O[C@@]2(C)Oc3c(C)c(O)c4c(O)c(c(/C=N/N5CCN(C)CC5)c(O)c4c3C2=O)NC(=O)/C(C)=C\C=C\[C@H](C)[C@H](O)[C@@H](C)[C@@H](O)[C@@H](C)[C@H](OC(C)=O)[C@@H]1C [RIFAMPIN]
MIC [1]: < 1 µM | MIC [2]: < 1 µM | MIC [3]: < 1 µM | MIC [4]: 32 µM (≈ 26.3 µg/mL) | MIC [5]: 4 µM (≈ 3.29 µg/mL) | MIC [6]: 32 µM (≈ 26.3 µg/mL) | Activity [7]: Active

H-WWWWKRRRR-NH2
MIC [1]: 8 µM | MIC [2]: 8 µM | MIC [3]: 32 µM | MIC [4]: 64 µM | MIC [5]: 32 µM | MIC [6]: 8 µM | MHC10 [8]: > 256 µM | CC50 at 1 h [9]: > 128 µM | MIC [10]: 32 µM | MIC [11]: 8 µM | MIC [12]: 8 µM | MIC [13]: 16 µM | MIC [14]: 16 µM | MIC [15]: 8 µM | MIC [16]: 8 µM | MIC [17]: 8 µM | MIC [18]: 8 µM | MIC [19]: 8 µM | fold change (FC) [20]: <=2 | fold change (FC) [21]: <=2 | fold change (FC) [22]: <=2 | fold change (FC) [23]: <=2 | fold change (FC) [24]: <=2 | MIC [25]: 2 µM | MIC [26]: 8 µM | selectivity ratio [27]: 0.5 | selectivity ratio [28]: 0.13 | MIC [29]: 2 µM | MIC [30]: 8 µM | selectivity ratio [31]: 0.5 | selectivity ratio [32]: 0.13 | hemolysis at 1 h, 256 µM [33]: < 10% | half-life at 10000 µM [34]: 85.3 min

H-WWKRR-NH2
MIC [1]: > 128 µM | MIC [2]: 128 µM | MIC [3]: > 128 µM | MIC [4]: > 128 µM | MIC [5]: > 128 µM | MIC [6]: > 128 µM | MHC10 [8]: > 256 µM | CC50 at 1 h [9]: > 128 µM

N=C(N)NCCC[C@H](NC(=O)[C@H](CCCNC(=N)N)NC(=O)[C@H](CCCNC(=N)N)NC(=O)[C@H](CCCNC(=N)N)NC(=O)[C@H](CCCNC(=N)N)NC(=O)[C@H](CCCNC(=N)N)NC(=O)[C@H](CCCCNC(=O)[C@H](Cc1c[nH]c2ccccc12)NC(=O)[C@H](Cc1c[nH]c2ccccc12)NC(=O)[C@@H](N)Cc1c[nH]c2ccccc12)NC(=O)[C@H](Cc1c[nH]c2ccccc12)NC(=O)[C@H](Cc1c[nH]c2ccccc12)NC(=O)[C@@H](N)Cc1c[nH]c2ccccc12)C(N)=O (H-WWWK([Trp-Trp-Trp])RRRRRR-NH2)
MIC [1]: 16 µM (≈ 35.2 µg/mL) | MIC [2]: 8 µM (≈ 17.6 µg/mL) | MIC [3]: 32 µM (≈ 70.4 µg/mL) | MIC [4]: 32 µM (≈ 70.4 µg/mL) | MIC [5]: 32 µM (≈ 70.4 µg/mL) | MIC [6]: 16 µM (≈ 35.2 µg/mL) | MHC10 [8]: 17.61 µM | CC50 at 1 h [9]: 41.7 µM

H-RRRRKWWW-NH2
MIC [1]: 8 µM | MIC [2]: 8 µM | MIC [3]: 128 µM | MIC [4]: 64 µM | MIC [5]: 64 µM | MIC [6]: 16 µM | MHC10 [8]: > 256 µM | CC50 at 1 h [9]: > 128 µM

H-RRKWW-NH2
MIC [1]: > 128 µM | MIC [2]: 64 µM | MIC [3]: > 128 µM | MIC [4]: > 128 µM | MIC [5]: > 128 µM | MIC [6]: > 128 µM | MHC10 [8]: > 256 µM | CC50 at 1 h [9]: > 128 µM
